These results are taken from US12673930B2, “Thiophene HSD17B13 inhibitors and uses thereof” (INIPHARM, INC., priority 2020, dated 2026).

Assay [1] has as its target T1, HSD17B13 enzyme (Homo sapiens, UniProt Q7Z5P4).
T1 construct: His; made in house; host or cells: E. coli
T1 sequence (Q7Z5P4 20-300): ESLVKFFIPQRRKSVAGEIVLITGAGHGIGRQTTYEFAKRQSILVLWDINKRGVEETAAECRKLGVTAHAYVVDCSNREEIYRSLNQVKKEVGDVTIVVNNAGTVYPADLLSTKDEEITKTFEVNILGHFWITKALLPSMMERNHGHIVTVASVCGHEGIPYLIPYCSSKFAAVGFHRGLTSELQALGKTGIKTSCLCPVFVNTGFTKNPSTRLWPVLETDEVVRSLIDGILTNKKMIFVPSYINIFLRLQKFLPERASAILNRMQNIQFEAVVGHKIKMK
Briefly: LC/MS estrone detection assay (conversion of estradiol to estrone by HSD17B13). To be noted: substrate 4 μM estradiol, 6 mM NAD+, 30 nM HSD17B13 enzyme, 2 hours at 26.5° C. The class given is biochemical. The method, then:
The liquid chromatography/mass spectrometry (LC/MS) estrone detection assay monitors the conversion of estradiol to estrone by HSD17B13. This assay was performed in a 96 wp format (Eppendorf deep well Plate 96/500) in an 80 μl reaction volume containing: 4 μM estradiol (E2; Cayman; Ser. No. 10/006,315); 6 mM NAD^+ (Sigma; #N0623), and 30 nM HSD17B13 enzyme (in-house; E. coli expressed His-tagged, purified, soluble protein), in a buffer containing 1M potassium phosphate buffer pH 7.4 and 0.5% vehicle (DMSO). Reactions were incubated for 2 hours at 26.5° C., and estradiol (E2) conversion to estrone (E1) was quantitated by LC-MS/MS based analyte detection for E1 using LCMS grade reagents. Reactions were terminated by the addition of two volumes of acetonitrile (MeCN; LCMS grade; CAS #75/05/8) containing deuterated (D4)-E1 as internal standard (Clear Synth; #CS-T-54273; 500 ng/mL final concentration). Samples were applied to pre-prepared Bond Elut-C18 extraction cartridges (3 mL; Agilent; Ser. No. 12/102,028), and washed and eluted in MeCN. Eluates were dried under nitrogen and re-suspended in 60% methanol (LCMS grade methanol; CAS #67/56/1) before submission for analysis. Standard curves for E1 were included for quantification. Analysis of samples was undertaken on a XBridge BEH C18 column (Waters; #186003033) using 0.1% Diethyl Amine in MeCN (mobile phase A; DEA CAS #109-89-7) and 0.1% Diethyl Amine in milli-Q water (mobile phase B) in a 3 min gradient up to 25% B. Analytes were detected in negative mode using MRM analysis, with E2 having a RT of 1.85 min and E1 having a RT of 2 min. Activity of the enzyme in the absence of NAD^+, was subtracted from samples to yield values for specific enzyme activity. Enzyme activity in the presence of test samples was expressed as a percentage of the uninhibited enzyme activity, and plotted versus inhibitor concentration. Non-linear regression was performed using the Morrison equation (see below) for tight binding inhibitors on GraphPad Prism software (GraphPad Software, La Jolla, Calif.). All assessments were undertaken in duplicate evaluations which were pooled during the extraction process and subsequently injected as duplicates for LC-MS/MS analysis. Y=Vo*(1−((((Et+X+Q)−(((Et+X+Q)^2)−4*Et*X)^0.5))/(2*Et))) Morrison equation:
Y=Activity in the presence of inhibitor; Vo=Activity in absence of inhibitor; Et=Total enzyme concentration; X=inhibitor concentration; and Q=(Ki*(1+(S/Km))), where Ki is the inhibition constant, Km is the Michaelis constant, and S is the substrate concentration.

The target in assay [2] is T1, HSD17B13 enzyme. Put plainly: NADH detection assay (fluorescence based Leukotriene B3 (LTB3) assay) for HSD17B13 activity. The assay is classed as biochemical. Particulars: substrate 25 μM LTB3, 3 mM NAD+, 125 nM HSD17B13 enzyme, 1 hour at 26.5° C. On the procedure:
The fluorescence based Leukotriene B3 (LTB3) assay monitors the fluorescence of NADH, which is generated from NAD+ during the dehydrogenation of the substrate LTB3. The reactions were performed in a 384-well plates (Greiner; #655076) in a 20 μl reaction volume containing the following reagents (final concentrations): 25 μM LTB3 (Cayman; #20109); 3 mM NAD^+ (Sigma; #N0623); 125 nM HSD17B13 enzyme (in-house; E. coli expressed His-tagged, purified, soluble protein); 1 M potassium phosphate buffer, pH 7.4; and 1% DMSO. Reactions were initiated by co-addition of NAD+ and enzyme, and monitored for 1 hour at 26.5° C. Generation of NADH was measured as the fluorescence signal (Excitation at 340 nm and Emission at 445 nm) at 1 hour minus the baseline fluorescence at t=0. Fluorescence signals in the absence of LTB3 (negative control values), were subtracted from all values so that the results reflected substrate-dependent production of NADH. NADH standards were included to allow the conversion of relative fluorescence units into rates of enzyme activity. Enzyme activity in the presence of test compounds was expressed as a percentage of the uninhibited enzyme activity, and plotted versus inhibitor concentration. Non-linear regression was performed using a four-parameter logistic model and Microsoft Excel Solver® software. Ten concentrations of inhibitor were tested in duplicate (in the range of 30 μM-2.5 nM). Two independent concentration response assays were performed and the geometric mean is reported, =/−the SEM.

Usually IC50 stands for the concentration at which inhibition is half-maximal. Low values mean inhibition by little substance, high ones a need for much substance.

A value given as a limit tells only on which side of the number the result lay.

For the compound `CC(C)(C)CCNC(=O)c1sccc1NC(=O)c1ccc(O)c(Cl)c1` [Example 3, 3-(3-chloro-4-hydroxybenzamido)-N-(3,3-dimethylbutyl)thiophene-2-carboxamide], the concentration for half-maximal inhibition (IC50) at HSD17B13 enzyme [1] is not above 100 nM; at HSD17B13 enzyme [2], not above 1000 nM.

In the case of `O=C(Nc1ccsc1C(=O)NCc1c[nH]c2ccccc12)c1ccc(O)c(Cl)c1` [Example 4, N-((1H-indol-3-yl)methyl)-3-(3-chloro-4-hydroxybenzamido)thiophene-2-carboxamide], the IC50 against HSD17B13 enzyme [1] is not above 100 nM; against HSD17B13 enzyme [2], not above 1000 nM.

Consider `CCNC(=O)c1sccc1NC(=O)c1ccc(O)c(Cl)c1` [Example 5, 3-(3-chloro-4-hydroxybenzamido)-N-ethylthiophene-2-carboxamide], for which the values for the IC50 at HSD17B13 enzyme [1] and at HSD17B13 enzyme [2] were 100 to 1000 nM and not above 1000 nM, respectively.

Consider `O=C(Nc1ccsc1C(=O)NC1COc2ccccc2C1)c1ccc(O)c(Cl)c1` (centres unmarked) [Example 6, 3-(3-chloro-4-hydroxybenzamido)-N-(chroman-3-yl)thiophene-2-carboxamide], for which the half-inhibitory concentration (IC50) was not above 100 nM against HSD17B13 enzyme [1] and not above 1000 nM against HSD17B13 enzyme [2].

Take `COc1ccncc1CCNC(=O)c1sccc1NC(=O)c1ccc(O)c(Cl)c1` [Example 7, 3-(3-chloro-4-hydroxybenzamido)-N-(2-(4-methoxypyridin-3-yl)ethyl)thiophene-2-carboxamide]: the 50% inhibitory concentration (IC50) at HSD17B13 enzyme [1] is 100 to 1000 nM; against HSD17B13 enzyme [2] it was not above 1000 nM.

Regarding `COc1ccccc1CNC(=O)c1sccc1NC(=O)c1ccc(O)c(Cl)c1` [Example 8, 3-(3-chloro-4-hydroxybenzamido)-N-(2-methoxybenzyl)thiophene-2-carboxamide], the 50% inhibitory concentration (IC50) was not above 100 nM against HSD17B13 enzyme [1] and not above 1000 nM at HSD17B13 enzyme [2].

For `O=C(Nc1ccsc1C(=O)NCCc1ccccc1F)c1ccc(O)c(Cl)c1` [Example 9, 3-(3-chloro-4-hydroxybenzamido)-N-(2-fluorophenethyl)thiophene-2-carboxamide], the IC50 on HSD17B13 enzyme [1] was not above 100 nM; at HSD17B13 enzyme [2], not above 1000 nM.

As to `COc1ccccc1CCNC(=O)c1sccc1NC(=O)c1ccncc1` [Example 10, N-(2-((2-methoxyphenethyl)carbamoyl)thiophen-3-yl)isonicotinamide], the IC50 against HSD17B13 enzyme [1] and against HSD17B13 enzyme [2] was more than 10000 nM each time.

Regarding `COc1ccccc1CCNC(=O)c1sc2nccnc2c1NC(=O)c1ccc(O)c(Cl)c1` [Example 12, 7-(3-chloro-4-hydroxybenzamido)-N-(2-methoxyphenethyl)thieno[2,3-b]pyrazine-6-carboxamide], the IC50 against HSD17B13 enzyme [1] lay within 100 to 1000 nM; at HSD17B13 enzyme [2], 1000 to 5000 nM.

On to `COc1ccccc1CCNC(=O)c1ccsc1NC(=O)c1ccc(O)c(Cl)c1` [Example 13, 2-(3-chloro-4-hydroxybenzamido)-N-(2-methoxyphenethyl)thiophene-3-carboxamide], for which the values for the IC50 at HSD17B13 enzyme [1] and against HSD17B13 enzyme [2] were not above 100 nM and not above 1000 nM, respectively.

In the case of `COc1ccccc1CCNC(=O)c1c(NC(=O)c2ccc(O)c(Cl)c2)sc2c1CCCC2` [Example 14, 2-(3-chloro-4-hydroxybenzamido)-N-(2-methoxyphenethyl)-4,5,6,7-tetrahydrobenzo[b]thiophene-3-carboxamide], the results for the concentration for half-maximal inhibition (IC50) at HSD17B13 enzyme [1] and against HSD17B13 enzyme [2] were 100 to 1000 nM and 1000 to 5000 nM, respectively.

For `COc1ccccc1CCNC(=O)c1c(NC(=O)c2ccc(O)c(F)c2)sc(C)c1C` [Example 16, 2-(3-fluoro-4-hydroxybenzamido)-N-(2-methoxyphenethyl)-4,5-dimethylthiophene-3-carboxamide], the IC50 at HSD17B13 enzyme [1] is not above 100 nM; on HSD17B13 enzyme [2], not above 1000 nM.

Turning to `COc1ccccc1CCNC(=O)c1sc(Cl)cc1NC(=O)c1ccc(O)c(Cl)c1` [Example 17, 5-chloro-3-(3-chloro-4-hydroxybenzamido)-N-(2-methoxyphenethyl)thiophene-2-carboxamide], the figures for the 50% inhibitory concentration (IC50) at HSD17B13 enzyme [1] and on HSD17B13 enzyme [2] were not above 100 nM and not above 1000 nM, respectively.

`CC(C)(C)CCNC(=O)c1sccc1NC(=O)c1cc(F)c(O)c(F)c1` [Example 18, 3-(3,5-difluoro-4-hydroxybenzamido)-N-(3,3-dimethylbutyl)thiophene-2-carboxamide]: the IC50 on HSD17B13 enzyme [1] was not above 100 nM; against HSD17B13 enzyme [2], not above 1000 nM.

`CC(C)(C)CCNC(=O)c1sc2cnccc2c1NC(=O)c1ccc(O)c(F)c1` [Example 19, N-(3,3-dimethylbutyl)-3-(3-fluoro-4-hydroxybenzamido)thieno[2,3-c]pyridine-2-carboxamide]: the IC50 was 100 to 1000 nM against HSD17B13 enzyme [1] and more than 10000 nM on HSD17B13 enzyme [2].

For the compound `COc1ccccc1CCNC(=O)c1sccc1NC(=O)Cc1ccc(O)c(Cl)c1` [Example 20, 3-(2-(3-chloro-4-hydroxyphenyl)acetamido)-N-(2-methoxyphenethyl)thiophene-2-carboxamide], the figures for the half-inhibitory concentration (IC50) on HSD17B13 enzyme [1] and against HSD17B13 enzyme [2] were 100 to 1000 nM and more than 10000 nM, respectively.

Consider `COc1ccccc1CCNC(=O)c1sccc1NC(=O)c1ccc(S(=O)(=O)NC(=O)c2ccccc2)c(Cl)c1` [Example 24, 3-(4-(N-benzoylsulfamoyl)-3-chlorobenzamido)-N-(2-methoxyphenethyl)thiophene-2-carboxamide], for which the results for the IC50 against HSD17B13 enzyme [1] and on HSD17B13 enzyme [2] were 1000 to 10000 nM and more than 10000 nM, respectively.

`COc1ccccc1CCNC(=O)c1sccc1NC(=O)c1ccc(OC(F)(F)C(=O)O)c(Cl)c1` [Example 25, 2-(2-chloro-4-((2-((2-methoxyphenethyl)carbamoyl)thiophen-3-yl)carbamoyl)phenoxy)-2,2-difluoroacetic acid]: the values for the half-maximal inhibitory concentration (IC50) on HSD17B13 enzyme [1] and on HSD17B13 enzyme [2] were 1000 to 10000 nM and more than 10000 nM, respectively.

Consider `COc1ccccc1CCNC(=O)c1sccc1NC(=O)c1ccc(S(N)(=O)=O)c(Cl)c1` [Example 26, 3-(3-chloro-4-sulfamoylbenzamido)-N-(2-methoxyphenethyl)thiophene-2-carboxamide], for which the concentration for half-maximal inhibition (IC50) on HSD17B13 enzyme [1] and at HSD17B13 enzyme [2] was more than 10000 nM throughout.

Take `COc1ccccc1CCNC(=O)c1sccc1NC(=O)c1ccc(C(F)(F)C(=O)O)c(F)c1` [Example 27, 2,2-difluoro-2-(2-fluoro-4-((2-((2-methoxyphenethyl)carbamoyl)thiophen-3-yl)carbamoyl)phenyl)acetic acid]: the half-maximal inhibitory concentration (IC50) at HSD17B13 enzyme [1] and on HSD17B13 enzyme [2] was more than 10000 nM throughout.

As to `COc1ccccc1CCNC(=O)c1sccc1NC(=O)c1ccc2[nH]nc(Cl)c2c1` [Example 28, 3-chloro-N-(2-((2-methoxyphenethyl)carbamoyl)thiophen-3-yl)-1H-indazole-5-carboxamide], the IC50 against HSD17B13 enzyme [1] and at HSD17B13 enzyme [2] was more than 10000 nM in each case.

Consider `COc1ccccc1CCNC(=O)c1sccc1NC(=O)c1ccc(N2CCC(C(=O)O)C2)c(Cl)c1` (centres unmarked) [Example 29, 1-(2-chloro-4-((2-((2-methoxyphenethyl)carbamoyl)thiophen-3-yl)carbamoyl)phenyl)pyrrolidine-3-carboxylic acid], for which the IC50 was 1000 to 10000 nM on HSD17B13 enzyme [1] and more than 10000 nM against HSD17B13 enzyme [2].
